Results: patent US20220280663A1, “[…] TARGETED […] ACTIVE SUBSTANCE OR LABEL […] SYSTEM” (CELLIS AG, priority 2016, published 2022)

What was measured:
CD45^+ leukocyte cell = experiment: Uptake and storage of iron binding proteins by CD45+ leukocyte cells; type: cell-based; details: incubation 1-4 hours in protein solution (ferritin 0.8 mg/ml; haemoglobin, transferrin 0.1 mg/ml), standard culture conditions
Experimental: (§1) Obtained cells are incubated in ferritin solution for a time and at the concentration sufficient to ensure proper ratio of ferritin/cell for their full load and also to ensure proper drug content to obtain therapeutic effect or contrast for proper imaging. The time and concentration may vary depending on the number of molecules encapsulated/adsorbed into the ferritin cage, status of cell activation, condition and number of their intended administration.
For example, to ensure proper load with ferritins, cells are incubated for 1-4 hours in ferritin solution 0.8 mg/ml in standard culture conditions. The frame of ferritin concentration may vary at least between 0.01 and 4 mg/ml as well as incubation time (5 min-6 hours or more). Adjusting time and concentration of ferritin load to cells, the influence of ferritin and treatment conditions on cell viability should be minded.
as §1, with “haemoglobin” for “ferritin”, “haemoglobin/cell” for “ferritin/cell”, “linked with” for “encapsulated/adsorbed into”, “haemoglobin molecule,” for “ferritin cage,”, “administration. […]” for “administration.”

cancer cells = experiment: Transfer of iron binding proteins from loaded leukocytes to co-cultured cancer cells; type: cell-based; details: for transport to cancer cells from granulocytes: loaded granulocytes (FIG. 15); for transport to cancer cells from lymphocytes: loaded lymphocytes (FIG. 16); for transport to cancer cells from macrophages: loaded macrophages, mouse mammary, colon, canine mammary, human breast, pancreatic, bladder cancer cells; for transport to cancer cells from monocytes: loaded monocytes (FIG. 14)
Description: However, in case of cancer cells the ratio of both cell types is crucial. The more macrophages the better and faster the transport is. The most efficient transfer to the cancer cells was observed when ratio of macrophages to cancer cells was 1:1 or more.
This transfer of compounds conjugated with anticancer drugs made the effect inducing apoptosis in cancer cells (FIG. 6, 13).
However, the ratio of both cell types is important. The more monocytes the better and faster the transport is. The most efficient transfer to the cancer cells was observed when ratio of monocytes to cancer cells was 1:1 or more.
However, the ratio of both cell types is crucial. The more granulocytes the better and faster the transport is. The most efficient transfer to the cancer cells was observed when ratio of granulocytes to cancer cells was 1:1 or more.
However, the ratio of both cell types is crucial. The more lymphocytes the better and faster the transport is. The most efficient transfer to the cancer cells was observed when ratio of lymphocytes to cancer cells was 1:1 or more.

Substance	uptake of iron binding protein by cells (CD45^+ leukocyte cell)	transport to cancer cells from granulocytes (cancer cells)	transport to cancer cells from lymphocytes (cancer cells)	transport to cancer cells from macrophages (cancer cells)	transport to cancer cells from monocytes (cancer cells)
haemoglobins: human haemoglobin prepared from fresh red cells (SEQ ID NO: 18 or 22)	very easily uptake	very easily transport	very easily transport	very easily transport	very easily transport
transferrins: human holo-transferrin purified from serum (SEQ ID NO: 28)	very easily uptake	very easily transport	very easily transport	very easily transport	very easily transport
